Test results published in patent publication US20260008775A1, “AZOLE MODULATORS OF CHOLESTEROL BIOSYNTHESIS AND THEIR USE FOR PROMOTING REMYELINATION” (GENENTECH, INC., priority 2022, published 2026).

How the values were obtained:
[1] = target: human emopamil binding protein and human 7-dehydrocholesterol reductase (hEBP-DHCR7) (Homo sapiens (Human), UniProt Q15125); experiment: hEBP-DHCR7 radioligand binding assay (filter binding, membranes of co-expressing HEK293 cells); settings: competition with [3H] radioligand, 8 doses 0.06 to 5000 nM, Ki calculated from IC50
Description: Membrane Preparation: human emopamil binding protein and human 7-dehydrocholesterol reductase co-expressing cells were generated by transient transfecting host human embryonic kidney (HEK) 293 cells with 2 DNA constructs containing each protein's coding sequence. Cells were suspension cultured at 37° C. with 5% CO2 in […] 293 Expression Medium (Thermofisher). Whole cell membrane was prepared by harvesting the cell pellet, adding cold membrane buffer (50 mM Tris, pH7.5, 1× Roche COMPLETE EDTA-free protease inhibitor cocktail) 10 times volume of the cell pellets weight, lysing cell pellet on ice by using Dounce homogenizer, spinning at 200 g 4° C. for 15 min, collecting supernatant and spinning again at 25000 g 4° C. for 50 min, transferring pellet to Dounce homogenizer, re-suspending pellet by homogenizing in membrane buffer on ice to reach ˜25 mg/mL, then keeping whole cell membrane aliquots at −80° C.
Compounds were prepared in a 96-well U bottom plate (Corning Cat #7007) using an Echo550 machine and 10 mM compound DMSO stock solution, followed by an 8-dose 5-fold serial dilutions protocol with final testing compound concentration ranging from 0.06 to 5000 nM, with DMSO back fill to 100 nL/well and n=2. […] The UniFilter-96 GF/B plates (PerkinElmer Cat #6005177) were pre-treated by adding 50 μl/well of 0.3% (v/v) Polyethylenimine (PEI) (branched, Sigma Cat #408727) to UniFilter-96 GF/B plates. The plates were sealed and incubated at 4° C. for 3 hrs. Then, the plates were washed with ice-cold assay buffer 3 times. The radioligand binding assay was prepared by adding assay buffer diluted hEBP-DHCR7 membrane at 66.7 µg/ml×150 μl/well into the 96-well compound plate to reach 10 μg membrane per well. Then, the assay buffer diluted [3H]—(S)-6-(2-Methyl-3-(6-(trifluoromethyl)pyridin-3-yl)propyl)-2-thia-6-azaspiro[3.4]octane 2,2-dioxide (Moravek, Cat #MT-1003106) was added at 25 nM×50 μl/well. Following this, the plate was centrifuged at 1000 rpm for 30 secs. The plate was then sealed and agitated at 600 rpm at 22° C. for 5 min, and then incubated at 22° C. for 3 hrs. The incubation was stopped by transferring the binding solution to the pre-treated UniFilter-96 GF/B plate, vacuum filtrated, and then washed four times with ice-cold assay buffer. Following this, the plates were dried at 37° C. for 45 min. The plates were then sealed at the bottom. 40 µl/well of scintillation cocktail was added to the plates. A MicroBeta2 microplate counter was then used to read the plate and analyze the data. For reference and test compounds, the results are expressed as % Inhibition, using the normalization equation: N=100−100×(U−C2)/(C1−C2), where U is the unknown value, C1 is the average of high controls, and C2 is the average value of low controls.

[2] = test system: zymostenol accumulation (EBP) in EpiSC-derived OPCs; experiment: GC/MS-based sterol profiling, zymostenol accumulation in EpiSC-derived OPCs; assay type: cell-based, mouse; settings: Mus musculus, 24 h, EpiSC-derived OPCs, 24 hr, 8 doses from 0.15 nM to 333 nM; read-out: Mouse Zymostenol GCMS EC50
Description: To assess effects of treatments on OPCs, all treatments were assayed in two or more independent platings of epiblast stem cell-derived OPCs (EpiSC). EpiSC-derived OPCs were obtained using in vitro differentiation protocols and culture conditions described previously (Najm et al, 2011, Nature Methods). OPCs were expanded and frozen down in aliquots. OPCs were thawed into growth conditions for at least one passage before use in further assays.
Sterols were monitored using a modified Folch wash protocol (Hubler et al, 2018, Nature). EpiSC-derived OPCs were plated at 100,000 cells per well in PO- and laminin-coated 96-well plates in N2B27 media without growth factors. After 24 hours, cells were rinsed with saline and plates were frozen. Cholesterol-d7 standard was then added to each well before drying under nitrogen stream and derivatization with 55 μl of bis(trimethylsilyl) trifluoroacetamide. After derivatization, 2 μl were analyzed by gas chromatography/mass spectrometry using an Agilent 5973 Network Mass Selective Detector equipped with a 6890 gas chromatograph system and a HP-5MS capillary column (30 m×0.25 mm×[…]). Samples were analyzed in full scan mode using electron impact ionization; ion fragment peaks were integrated to calculate sterol abundance, and quantitation was relative to cholesterol-d7. The following ion fragments were used to quantitate each metabolite: cholesterol-d7 (465), FF-Mas (482), cholesterol (368), zymostenol (458), zymosterol (456), Desmosterol (456, 343), 7-dehydrocholesterol (456, 325), lanosterol (393), lathosterol (458), 14-dehydrozymostenol (456, 351). […] All standards were obtained from Avanti Polar Lipids unless otherwise indicated. Calibration curves were generated by injecting varying concentrations of sterol standards and maintaining a fixed amount of cholesterol-D7. For normalized zymostenol accumulation results, the total amount of zymostenol measured after drug treatment was divided by the total amount of zymostenol accumulated after 24 hr treatment with 100 nM positive control reference.

human emopamil binding protein and human 7-dehydrocholesterol reductase (hEBP-DHCR7), sequence (Q15125 whole entry): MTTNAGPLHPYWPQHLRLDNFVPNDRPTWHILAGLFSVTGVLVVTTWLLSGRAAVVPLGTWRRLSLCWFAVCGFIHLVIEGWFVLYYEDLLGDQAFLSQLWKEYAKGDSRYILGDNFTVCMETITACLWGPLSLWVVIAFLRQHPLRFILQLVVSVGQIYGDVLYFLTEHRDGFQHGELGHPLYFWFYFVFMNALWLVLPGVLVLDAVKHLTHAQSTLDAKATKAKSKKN

Compound | Ki [1] [nM] | EC50 [2] [nM]
CC(C)n1nc(-c2cccc(OC(F)F)c2)nc1[C@H]1[C@@H]2C[C@@H](N3CCOC[C@H]3C)C[C@@H]21 [Compound 77, (R)-4-((1R,3s,5S,6R)-6-(3-(3-(Difluoromethoxy)phenyl)-1-isopropyl-1H-1,2,4-triazol-5-yl)bicyclo[3.1.0]hexan-3-yl)-3-methylmorpholine] | 129 | 191
CC(C)n1nc(-c2cccc(OC(F)F)c2)nc1[C@H]1[C@@H]2C[C@@H](N3CCCOCC3)C[C@@H]21 [Compound 74, 4-((1R,3s,5S,6r)-6-(3-(3-(Difluoromethoxy)phenyl)-1-isopropyl-1H-1,2,4-triazol-5-yl)bicyclo[3.1.0]hexan-3-yl)-1,4-oxazepane] | 37 | 168
CC(C)n1nc(-c2cnc(F)c(C(F)(F)F)c2)nc1[C@H]1CC[C@@H](N2CCOCC2)C1 (single isomer, unassigned) [Compound 158*] | 33.8 | 5.38
CC(C)n1nc(-c2cncc(C(F)(F)F)c2)cc1[C@H]1[C@@H]2CC(N3CCOC[C@@H]3C)C[C@@H]21 (single isomer, unassigned) [43*] | 65 | 243
CC(C)n1nc(-c2ccc(C(F)(F)F)nc2)cc1[C@@H]1CC[C@@H](N2CCN(CCO)CC2)C1 (single isomer, unassigned) [86*] | 31.2 | 28.7
CC(C)n1nc(-c2cncc(C(F)(F)F)c2)nc1[C@H]1[C@@H]2C[C@H](N3CCOC[C@@H]3C)C[C@@H]21 [Compound 122, (S)-4-((1R,3r,5S,6R)-6-(1-Isopropyl-3-(5-(trifluoromethyl)pyridin-3-yl)-1H-1,2,4-triazol-5-yl)bicyclo[3.1.0]hexan-3-yl)-3-methylmorpholine] | 26.6 | 7.81
CC[C@H]1CN([C@@H]2CC[C@H](c3nc(-c4ccc(C(F)(F)F)nc4)nn3C(C)C)C2)CCO1 [Compound 128, (S)-2-Ethyl-4-((1R,3S)-3-(1-isopropyl-3-(6-(trifluoromethyl)pyridin-3-yl)-1H-1,2,4-triazol-5-yl)cyclopentyl)morpholine] | 118 | 16.6
CC[C@@H]1CN([C@@H]2CC[C@H](c3nc(-c4cncc(F)c4)nn3C(C)C)C2)CCO1 [Compound 124, (R)-2-Ethyl-4-((1R,3S)-3-(3-(5-fluoropyridin-3-yl)-1-isopropyl-1H-1,2,4-triazol-5-yl)cyclopentyl)morpholine] | 2400 | 376
CC(C)n1nc(-c2cncc(C(F)(F)F)c2)cc1[C@@H]1CC[C@@H](N2CCOCC2)C1 (single isomer, unassigned) [59*] | 73.4 | 19.2
CC(C)n1nc(-c2cnc(C(F)(F)F)nc2)nc1[C@@H]1CC[C@@H](N2CCO[C@H](C)C2)C1 [Compound 149, (R)-4-((1R,3R)-3-(1-Isopropyl-3-(2-(trifluoromethyl)pyrimidin-5-yl)-1H-1,2,4-triazol-5-yl)cyclopentyl)-2-methylmorpholine] | 68.3 | 129
CC(C)n1nc(-c2cnc(C(F)(F)F)nc2)cc1[C@H]1CC[C@@H](N2CCO[C@@H](CF)C2)C1 (single isomer, unassigned) [Compound 131*] | 106 | 168
CC(C)n1nc(-c2cccc(C(F)(F)F)n2)cc1[C@H]1[C@@H]2C[C@@H](N3CCN(C4CCC4)CC3)C[C@@H]21 [Compound 84, 1-Cyclobutyl-4-((1R,3s,5S,6r)-6-(1-isopropyl-3-(6-(trifluoromethyl)pyridin-2-yl)-1H-pyrazol-5-yl)bicyclo[3.1.0]hexan-3-yl)piperazine] | 27.8 | 3.49
CC(C)n1nc(-c2cccc(C(F)(F)F)n2)nc1[C@H]1CC[C@H](N2CCOC[C@H]2C)CC1 (single isomer, unassigned) [80*] | 528 | 112

Other lines, results leading:

Ki [1] [nM] | EC50 [2] [nM] | Compound
42.4 | 21.9 | CC(C)n1nc(-c2ccc(C(F)(F)F)nc2)cc1[C@H]1CC[C@@H](N2CCN(CCO)CC2)C1 (single isomer, unassigned) [89*]
23.2 | 2.79 | CC[C@@H]1CN([C@@H]2CC[C@H](c3nc(-c4cncc(Cl)c4)nn3C(C)C)C2)CCO1 [Compound 129, (R)-4-((1R, 3S)-3-(3-(5-Chloropyridin-3-yl)-1-isopropyl-1H-1,2,4-triazol-5-yl)cyclopentyl)-2-ethylmorpholine]
73 | 55 | CC(C)n1nc(-c2ccnc(C(F)(F)F)n2)cc1[C@H]1[C@@H]2C[C@@H](N3CCOC[C@H]3C)C[C@@H]21 [Compound 102, (R)-4-((1R,3s,5S,6S)-6-(1-Isopropyl-3-(2-(trifluoromethyl)pyrimidin-4-yl)-1H-pyrazol-5-yl)bicyclo[3.1.0]hexan-3-yl)-3-methylmorpholine]
65 | 62 | CC(C)n1nc(-c2cncc(C(F)(F)F)c2)cc1[C@H]1[C@@H]2CC(N3CCOC[C@H]3C)C[C@@H]21 (single isomer, unassigned) [44*]
392 | 619 | CC(C)n1nc(-c2cnc(C(F)(F)F)nc2)cc1[C@H]1CC[C@H](N2CCO[C@@H](CF)C2)C1 (single isomer, unassigned) [Compound 130*]
12.2 | 4.25 | CC(C)n1nc(-c2cnc(F)c(C(F)(F)F)c2)nc1[C@H]1CC[C@H](N2CCOCC2)C1 (single isomer, unassigned) [Compound 159*]
584 | 213 | CC(C)n1nc(-c2cncc(C(F)(F)F)c2)nc1[C@H]1[C@@H]2C[C@@H](N3CCOC[C@H]3C)C[C@@H]21 [Compound 119, (R)-4-((1R,3s,5S,6R)-6-(1-Isopropyl-3-(5-(trifluoromethyl)pyridin-3-yl)-1H-1,2,4-triazol-5-yl)bicyclo[3.1.0]hexan-3-yl)-3-methylmorpholine]
40.4 | 10.6 | CC[C@H]1CN([C@@H]2CC[C@H](c3nc(-c4cncc(F)c4)nn3C(C)C)C2)CCO1 [Compound 123, (S)-2-Ethyl-4-((1R,3S)-3-(3-(5-fluoropyridin-3-yl)-1-isopropyl-1H-1,2,4-triazol-5-yl)cyclopentyl)morpholine]
34.6 | 13.5 | CC(C)n1nc(-c2cncc(C(F)(F)F)c2)nc1[C@@H]1CC[C@H](N2CCOCC2)C1 (single isomer, unassigned) [Compound 117*]
465 | 305 | CC[C@H]1CN([C@@H]2CC[C@@H](c3nc(-c4cnc(C(F)(F)F)nc4)nn3C(C)C)C2)CCO1 [Compound 155, (S)-2-Ethyl-4-((1R,3R)-3-(1-isopropyl-3-(2-(trifluoromethyl)pyrimidin-5-yl)-1H-1,2,4-triazol-5-yl)cyclopentyl) morpholine]
